Source: patent US20260152484A1, “HETEROCYCLIC COMPOUNDS AS TRIGGERING RECEPTOR EXPRESSED ON MYELOID CELLS 2 AGONISTS” (Vigil Neuroscience, Inc., priority 2021, published 2026)

Target: T1, human TREM2 (Homo sapiens, UniProt Q9NZC2)
T1 construct: expressed in transfected cells; host or cells: HEK293T (HEK293T-hTREM2 cells)
Test: Cellular phosphorylation of Syk (AlphaLisa) in HEK293T-hTREM2 cells, TREM2 agonist potency
Type: cell-based
Conditions: HEK293 cells expressing human TREM2 and DAP12; pSyk AlphaLisa; Table D
Experimental: In Vitro Measurement of Triggering Receptor Expressed on Myeloid Cells 2 Activity Using Cellular Phosphorylation of Spleen Tyrosine Kinase (“Syk”) Assays
Measurement of TREM2 agonist potency was done using a HEK cell line expressing human TREM2 and DAP12 (HEK293T-hTREM2 cells). Binding of small molecules to, and activation of, TREM2 increases the phosphorylation of Syk. The resultant levels of Syk phosphorylation are measured using a commercial AlphaLisa reagent kit. To perform the assay, HEK-hTREM2 cells were plated at 14,000 cells per well in a 384 well plate, in 25 μL of complete growth media and incubated at 37° C., 5% CO2 for 20-24 hours.
Prior to the assay, test compounds were diluted in the 384 well plates in assay buffer and allowed to equilibrate for 30 minutes. Growth media was removed from cell plates by inversion on blotting paper, and 25 μL of test articles in assay buffer was added to cells. Cells were incubated for 45 minutes at room temperature. After 45 minutes, assay buffer was removed and 10 μL of lysis buffer was added. Plates were shaken for 20 minutes at 350 RPM at room temperature. After complete lysis, AlphaLisa reagents were added to the lysate, and fluourescence intensity was measured using a Perkin Elmer Envision plate reader. Intensities were used to generate a standard curve, and % activation was calculated. Curve fitting was performed using Prism v9 software, log(agonist) vs response—variable slope (four parameters), and EC50s were calculated from the curve fit.
The results presented in Table D have been generated with the in vitro assay described above. This assay may be used to test any of the compounds described herein to assess and characterize a compound's ability to act as an agonist of TREM2.

T1 sequence (Q9NZC2 19-230): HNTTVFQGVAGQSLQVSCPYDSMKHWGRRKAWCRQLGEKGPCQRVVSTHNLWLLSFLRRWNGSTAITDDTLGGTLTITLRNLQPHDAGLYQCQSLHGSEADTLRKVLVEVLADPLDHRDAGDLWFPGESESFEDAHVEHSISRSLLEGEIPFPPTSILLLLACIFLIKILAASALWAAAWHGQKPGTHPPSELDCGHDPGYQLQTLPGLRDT
T1 sequence (O43914 22-113 partner): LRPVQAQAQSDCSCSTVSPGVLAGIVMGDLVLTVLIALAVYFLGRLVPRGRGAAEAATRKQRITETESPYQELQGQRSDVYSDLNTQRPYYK

EC50 [µM] | Structure (SMILES)
3 to 100 | Cc1nc2c(=O)n(CC(C)c3ccc(Cl)cc3)nc(-c3ccc(Cl)cc3)c2s1 (stereo not drawn) [compound 31, 7-(4-chlorophenyl)-5-(2-(4-chlorophenyl)propyl)-2-methylthiazolo[4,5-d]pyridazin-4(5H)-one]
0.5 to 3 | CC(C)Oc1cc(-n2nc(-c3ccc(Cl)cc3)c3cc(Cl)c(Cl)cc3c2=O)ccn1 [compound 12, 6,7-dichloro-4-(4-chlorophenyl)-2-(2-isopropoxypyridin-4-yl)phthalazin-1(2H)-one]
0.5 to 3 | Cc1cc2c(-c3ccc(Cl)cc3)nn(-c3ccc(OC(F)(F)F)cc3)c(=O)c2nc1C [compound 1, 5-(4-chlorophenyl)-2,3-dimethyl-7-(4-(trifluoromethoxy)phenyl)pyrido[2,3-d]pyridazin-8 (7H)-one]
3 to 100 | Cc1ccc(-c2nn(CCc3ccccc3)c(=O)c3nc(C)sc23)cc1 [compound 34, 2-methyl-5-phenethyl-7-(p-tolyl)thiazolo[4,5-d]pyridazin-4(5H)-one]
3 to 100 | Cc1nc2c(=O)n(CC(O)c3ccc(Cl)cc3)nc(-c3ccc(Cl)cc3)c2s1 (stereo not drawn) [compound 26, 7-(4-chlorophenyl)-5-(2-(4-chlorophenyl)-2-hydroxyethyl)-2-methylthiazolo[4,5-d]pyridazin-4(5H)-one]
0.5 to 3 | Cc1cc2c(-c3ccc(Cl)cc3)nn(-c3ccnc(N4CCN(C(=O)OC(C)(C)C)CC4)c3)c(=O)c2cc1C [compound 18, tert-butyl 4-(4-(4-(4-chlorophenyl)-6,7-dimethyl-1-oxophthalazin-2(1H)-yl)pyridin-2-yl)piperazine-1-carboxylate]
3 to 100 | Nc1nc2c(=O)n(CCc3ccccc3)nc(-c3ccc(Cl)cc3)c2s1 [compound 33, 2-amino-7-(4-chlorophenyl)-5-phenethylthiazolo[4,5-d]pyridazin-4(5H)-one]
0.5 to 3 | Cc1cc2c(-c3ccc(Cl)cc3)nn(-c3ccnc(C4CCC4)c3)c(=O)c2cc1C [compound 15, 4-(4-chlorophenyl)-2-(2-cyclobutylpyridin-4-yl)-6,7-dimethylphthalazin-1(2H)-one]
0.05 to 0.5 | Cc1nc2c(=O)n(-c3ccc(C(=O)O)cc3)nc(-c3ccc(Cl)cc3)c2s1 [compound 42, 4-(7-(4-chlorophenyl)-2-methyl-4-oxothiazolo[4,5-d]pyridazin-5(4H)-yl)benzoic acid]
0.5 to 3 | Cc1ccc2c(-c3ccc(Cl)cc3)nn(-c3ccc(OC(F)(F)F)cc3)c(=O)c2n1 [compound 23, 5-(4-chlorophenyl)-2-methyl-7-(4-(trifluoromethoxy)phenyl)pyrido[2,3-d]pyridazin-8(7H)-one]

Same assay, conditions: HEK293 cells expressing human TREM2 and DAP12; pSyk AlphaLisa; Table D-2

EC50 [µM] | Structure (SMILES)
0.5 to 3 | Cc1cc2c(-c3ccc(Cl)cc3)nn(-c3ccnc(C4CC(OCc5ccccc5)C4)c3)c(=O)c2cc1C (stereo not drawn) [I-109, 2-(2-(3-(benzyloxy)cyclobutyl)pyridin-4-yl)-4-(4-chlorophenyl)-6,7-dimethylphthalazin-1 (2H)-one]
0.5 to 3 | Cc1cc2c(-c3ccc(Cl)cc3)nn(-c3ccnc(OC4CNC4)c3)c(=O)c2nc1C [I-94, 7-[2-(azetidin-3-yloxy)-4-pyridyl]-5-(4-chlorophenyl)-2,3-dimethyl-pyrido[2,3-d]pyridazin-8-one; 2,2,2-trifluoroacetic acid]
0.05 to 0.5 | Cc1cc2c(-c3ccc(Cl)cc3)nn(-c3ccnc(Nc4cnn(C5CC5)c4)c3)c(=O)c2nc1C [I-120, 5-(4-chlorophenyl)-7-(2-((1-cyclopropyl-1H-pyrazol-4-yl)amino)pyridin-4-yl)-2,3-dimethylpyrido[2,3-d]pyridazin-8 (7H)-one]
0.5 to 3 | Cc1cc2c(-c3ccc(Cl)cc3)nn(-c3ccc(NC4COC4)nc3)c(=O)c2nc1C [I-118, 5-(4-chlorophenyl)-2,3-dimethyl-7-[6-(oxetan-3-ylamino)-3-pyridyl]pyrido [2,3-d]pyridazin-8-one; formic acid]
0.5 to 3 | Cc1cc2c(-c3ccc(Cl)cc3)nn(-c3ccc(N(C)C4COC4)nc3)c(=O)c2nc1C [I-119, 5-(4-chlorophenyl)-2,3-dimethyl-7-[6-[methyl(oxetan-3-yl)amino]-3-pyridyl]pyrido[2,3-d]pyridazin-8-one; formic acid]
